PubChem BioAssay AID330 (DTP/NCI, 2004)
“And” between values parts separate entries of the source, which are not always exact repeats. Equal values may be shown once. Inconclusive results and toxic doses are left out.

Tested on: P388 leukemia ip, CD2F1 mice, survival T/C
Assay: NCI In Vivo Anticancer Drug Screen. Data for tumor model P388 Leukemia (intraperitoneal) in CD2F1 (CDF1) mice
Conditions: endpoint: median survival time, higher = longer survival
How it was run: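 Mice carrying the transplanted tumor received test compound or vehicle. Survival was recorded in each group, and the value is the treated-group measurement divided by that of the vehicle-treated control group.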

`COc1cccc2c1C(=O)c1c(O)c3c(c(O)c1C2=O)C[C@@](O)(C(=O)COC(=O)c1cccnc1)C[C@@H]3OC1CC(N)C(O)C(C)O1` (stereo partly drawn) was tested, and the T/C (dose: 0.25 mg/kg/injection, schedule: Q04DX003 (ip), vehicle: saline) was 114 % of control, the T/C (dose: 0.5 mg/kg/injection, schedule: Q01DX009 (ip), vehicle: saline with Tween-80) was 118 % of control and the T/C (dose: 0.5 mg/kg/injection, schedule: Q01DX009 (ip), vehicle: water) was 163 % of control. The T/C (dose: 0.5 mg/kg/injection, schedule: Q04DX003 (ip), vehicle: saline) was 113 % of control, the T/C (dose: 0.5 mg/kg/injection, schedule: Q04DX003 (ip), vehicle: water) was 109 % of control and the T/C (dose: 1.0 mg/kg/injection, schedule: Q01DX009 (ip), vehicle: saline with Tween-80) was 122 % of control. For the same compound, the T/C (dose: 1.0 mg/kg/injection, schedule: Q01DX009 (ip), vehicle: water) was 167 % of control, the T/C (dose: 1.0 mg/kg/injection, schedule: Q04DX003 (ip), vehicle: saline) was 116 % of control and 122 % of control and the T/C (dose: 1.0 mg/kg/injection, schedule: Q04DX003 (ip), vehicle: water) was 119 % of control. The T/C (dose: 1.32 mg/kg/injection, schedule: Q01DX009 (ip), vehicle: saline sonified) was 209 % of control, the T/C (dose: 2.0 mg/kg/injection, schedule: Q01DX009 (ip), vehicle: saline sonified) was 209 % of control and the T/C (dose: 2.0 mg/kg/injection, schedule: Q01DX009 (ip), vehicle: water) was 229 % of control. For the same compound, the T/C (dose: 2.0 mg/kg/injection, schedule: Q04DX003 (ip), vehicle: saline) was 108 % of control, the T/C (dose: 2.0 mg/kg/injection, schedule: Q04DX003 (ip), vehicle: water) was 119 % of control and the T/C (dose: 3.0 mg/kg/injection, schedule: Q01DX009 (ip), vehicle: saline sonified) was 104 % of control. The T/C (dose: 4.0 mg/kg/injection, schedule: Q01DX009 (ip), vehicle: water) was 102 % of control, the T/C (dose: 4.0 mg/kg/injection, schedule: Q04DX003 (ip), vehicle: saline) was 113 % of control and the T/C (dose: 4.0 mg/kg/injection, schedule: Q04DX003 (ip), vehicle: water) was 119 % of control. The T/C (dose: 8.0 mg/kg/injection, schedule: Q04DX003 (ip), vehicle: saline) was 118 % of control, the T/C (dose: 8.0 mg/kg/injection, schedule: Q04DX003 (ip), vehicle: water) was 172 % of control and the T/C (dose: 16.0 mg/kg/injection, schedule: Q04DX003 (ip), vehicle: water) was 166 % of control. The T/C (dose: 64.0 mg/kg/injection, schedule: Q04DX003 (ip), vehicle: saline) was 95 % of control.
`O=[N+]1C=Cc2ccccc2C1=C1c2ccccc2C=CN1[O-]` was tested, and the T/C (dose: 25.0 mg/kg/injection, schedule: Q01DX005 (ip), vehicle: saline with Tween-80) was 101 % of control, the T/C (dose: 50.0 mg/kg/injection, schedule: Q01DX005 (ip), vehicle: saline with Tween-80) was 97 % of control and the T/C (dose: 100.0 mg/kg/injection, schedule: Q01DX005 (ip), vehicle: saline with Tween-80) was 103 % of control.
`O=c1nc2n(c3nccnc13)CCS2` was tested, and the T/C (dose: 12.5 mg/kg/injection, schedule: Q01DX009 (ip), vehicle: saline) was 111 % of control, the T/C (dose: 25.0 mg/kg/injection, schedule: Q01DX009 (ip), vehicle: saline) was 104 % of control and the T/C (dose: 50.0 mg/kg/injection, schedule: Q01DX009 (ip), vehicle: saline) was 100 % of control.
With `C1CCC([N-]C2CCCCC2)CC1.C1CCC([N-]C2CCCCC2)CC1.[Cl][Pt+2][Cl]` the T/C (dose: 100.0 mg/kg/injection, schedule: Q01DX001 (sc), vehicle: other) was 103 % of control and the T/C (dose: 200.0 mg/kg/injection, schedule: Q01DX001 (sc), vehicle: other) was 107 % of control.
`CCn1c(O)c(N=NC(=N)SCC(C)C)c2ccccc21` was tested, and the T/C (dose: 6.25 mg/kg/injection, schedule: Q01DX009 (ip), vehicle: suspension in saline) was 97 % of control and the T/C (dose: 12.5 mg/kg/injection, schedule: Q01DX009 (ip), vehicle: suspension in saline) was 94 % of control.
For `c1ccc(-c2nnn(-c3ccccc3)n2)cc1`, the T/C (dose: 12.5 mg/kg/injection, schedule: Q01DX009 (ip), vehicle: saline with Tween-80) was 91 % of control, the T/C (dose: 25.0 mg/kg/injection, schedule: Q01DX009 (ip), vehicle: saline with Tween-80) was 91 % of control and the T/C (dose: 50.0 mg/kg/injection, schedule: Q01DX009 (ip), vehicle: saline with Tween-80) was 91 % of control.
`CNC(=N)c1ccc(NC(=N)c2ccc(NC(=N)c3ccc(NC(=N)c4ccc(C(=N)NC)cc4)cc3)cc2)cc1` was tested, and the T/C (dose: 9.0 mg/kg/injection, schedule: Q01DX009 (ip), vehicle: saline with Tween-80) was 154 % of control, the T/C (dose: 13.0 mg/kg/injection, schedule: Q01DX009 (ip), vehicle: saline with Tween-80) was 190 % of control and the T/C (dose: 20.0 mg/kg/injection, schedule: Q01DX009 (ip), vehicle: saline with Tween-80) was 254 % of control.
